Test results published in patent US20210267939A1, “COMPOSITIONS AND METHODS FOR TREATING NAFLD/NASH AND RELATED DISEASE PHENOTYPES” (priority 2018, published 2021).
“Also recorded” adds a separate entry of the source.

What was measured:
Type in all cases: in vivo
Zucker fatty rats [1] = test: Liver triacylglyceride content in treated Zucker fatty rats; conditions: ZFR, BT2 20 mg/kg i.p. daily for one week, vs vehicle
Method: (§1) Individually housed, male 12 week-old Zucker fatty rats (ZFR, Charles River Laboratories) maintained on a custom control low fat (LF) diet (A11072001, Research Diets) were used for the BDK inhibition and PPM1K overexpression studies. For the BDK inhibition study, ZFR were administered the small molecule BDK inhibitor 3,6-dichlorobenzo[b]thiophene-2-carboxylic acid (BT2, Sigma) daily at a dose of 20 mg/kg dissolved in 200 ul of sterile dimethylsulfoxide by i.p. injection for 7 days. The control group was administered an equal volume of vehicle each day. […]
(§2) Plasma concentrations of the alpha-keto acids of leucine (α-keto-isocaproate, KIC), isoleucine (α-keto-β-methylvalerate, KMV) and valine (α-keto-isovalerate, KIV) were measured by LC-MS as previously described (Glynn et al., 2015; White et al., 2016). Other plasma analytes were measured on a Beckman DxC600 autoanalyzer, using reagents for lactate, total cholesterol, and triglycerides from Beckman, and non-esterified fatty acids (NEFA) and ketones (total and 3-hydroxybutyrate) from Wako (Richmond, Va.). Glycerol was measured using reagents from TG-B by Roche Diagnostics (Indianapolis, Ind.). Liver triglycerides were quantified using the triglyceride quantification kit from Abcam. Plasma insulin concentrations were measured with a Millipore EMD Rat insulin ELISA kit.

Zucker fatty rats [2] = test: Circulating BCAA and BCKA in treated Zucker fatty rats; conditions: ZFR, BT2 20 mg/kg i.p. daily for one week, vs vehicle
Method: as §1
Metabolite profiling: Amino acids were measured in plasma and liver samples, and acylcarnitines in liver samples. […]
as §2, with “Plasma insulin concentrations were measured with a Millipore EMD Rat insulin ELISA kit.” left out

ATP citrate lyase (ACL) = test: Immunoblot of phospho-ser454 and total ACL in liver of treated Zucker fatty rats; conditions: ZFR, BT2 vs vehicle
Method: (§3) Individually housed, male 12 week-old Zucker fatty rats (ZFR, Charles River Laboratories) maintained on a custom control low fat (LF) diet (A11072001, Research Diets) were used for the BDK inhibition and PPM1K overexpression studies. For the BDK inhibition study, ZFR were administered the small molecule BDK inhibitor 3,6-dichlorobenzo[b]thiophene-2-carboxylic acid (BT2, Sigma) daily at a dose of 20 mg/kg dissolved in 200 ul of sterile dimethylsulfoxide by i.p. injection for 7 days. The control group was administered an equal volume of vehicle each day. On day 6, following an overnight fast, ZFR were subjected to a 1 g/kg i.p. glucose tolerance test (GTT) precisely 1 hr after administration of BT2 (20 mg/kg i.p.) or vehicle. The glucose tolerance test was performed as described (White, et al., 2016). Following the GTT, rats were returned to their normal cages and provided free access to food and water. Indirect calorimetry was performed in a second cohort of BT2 treated rats on day 6 of BT2 administration. […]
(§4) Immunoblotting: Tissue lysates used for immunoblotting were prepared in Cell Lysis Buffer (Cell Signaling Technologies) containing protease inhibitor tablets (Roche), phosphatase inhibitor cocktails 2 and 3 (Sigma), and 10 mM PMSF. […] Immunoblots were developed using a Li-Cor Odyssey CLx and quantified using the Li-Cor software.

Zucker fatty rats [3] = test: Other plasma analytes (lactate, lipids, ketones) in treated Zucker fatty rats; conditions: ZFR, BT2 20 mg/kg i.p. daily for one week, vs vehicle
Method: as §1, §2

BCKDH e1a = test: Immunoblot of phospho-ser293 BCKDH e1a in tissues of treated Zucker fatty rats; conditions: ZFR, BT2 20 mg/kg i.p. daily for one week, vs vehicle
Method: as §3, §4

Zucker fatty rats [4] = test: Indirect calorimetry in BT2-treated Zucker fatty rats; conditions: ZFR, BT2 20 mg/kg i.p., day 6, hours following administration
Method: as §3, with “administration. Here ad-libitum fed rats were injected with BT2 (20 mg/kg i.p.) or vehicle immediately prior to being placed in an eight-chamber Oxymax system (Columbus Instruments) for seven hours. During their time in the metabolic cages all rats had free access to food and water.” for “administration.”

## O=C(O)c1sc2cc(Cl)ccc2c1Cl [BT2, 3,6-dichlorobenzo[b]thiophene-2-carboxylic acid]
Zucker fatty rats [1]
  hepatic TG levels: significantly lower
Zucker fatty rats [2]
  circulating BCAA levels: lowered
Zucker fatty rats [2]; 20 mg/kg
  circulating branched-chain α-ketoacids (BCKA): more dramatic lowering; also recorded: potently lowers
ATP citrate lyase (ACL)
  ACL phosphorylation on ser454, immunoblot of liver lysates: markedly less
  abundance of total ACL protein in liver: trend for lower abundance
Zucker fatty rats [3]
  circulating TG, cholesterol, glycerol, non-esterified fatty acids (NEFA), or ketones: no effects
  lactate in circulation: lower levels
BCKDH e1a
  BCKDH phosphorylation in skeletal muscle: not associated with a detectable change
  BCKDH phosphorylation on serine 293 of the e1a subunit in liver and heart: lower levels
Zucker fatty rats [4]
  respiratory exchange ratio (RER): lowered
